In article PMC9421655, “Novel Antagonist of the Type 2 Lysophosphatidic Acid Receptor (LPA2), UCM-14216, Ameliorates Spinal Cord Injury in Mice” (Journal of Medicinal Chemistry, 2022):
“Also recorded” adds a separate entry of the source.

Key:
[1] = Metabolic stability in human liver microsomes; assay type: in vitro ADME; conditions: male, liver microsomes (pooled), 1 mg/mL protein, NADPH, 37 °C, read-out: stability (t1/2, min) HLMs
Description: (§1) Reactions were initiated by the addition of a suspension of mouse liver microsomes (MLMs) (male CD-1 mice pooled, Sigma-Aldrich) or human liver microsomes (HLMs) (male human pooled, Sigma-Aldrich), respectively, at a final protein concentration of 1 mg/mL. […] Aliquots of 100 μL were quenched at time zero and at seven points ranging to 2 h (MLM) or 4 h (HLM) by pouring into 100 μL of ice-cold acetonitrile. […] The relative disappearance of the compound under study over the course of the incubation was monitored by HPLC-MS using SIM mode. Concentrations were quantified by measuring the area under the peak ([M + H]^+) normalized with an internal standard and converted to the percentage of compound remaining, using the time zero peak area value as 100%. The natural logarithm of the remaining percentage versus time data for each compound was fit to a linear regression, and the slope was used to calculate the degradation half-life (t1/2).

[2] = Metabolic stability in mouse liver microsomes; assay type: in vitro ADME; conditions: male, CD-1, mouse, liver microsomes (pooled), 1 mg/mL protein, NADPH, 37 °C, read-out: stability (t1/2, min) MLMs
Description: as §1

[3] = tested on: spinal cord injury in C57Bl/6J mice; assay: Spinal cord contusion injury model, locomotor recovery (Basso Mouse Scale); assay type: in vivo; conditions: C57Bl/6 mice
Description: BMS is the gold standard test used for locomotor scoring after SCI in which two blinder observers score the mouse motor performance based on a nine-point scale.[28]

[4] = Parallel artificial membrane permeability assay (PAMPA); assay type: in vitro ADME; conditions: pH 7.4, PAMPA, PBS pH 7.4, 5 h, rt, read-out: P (cm/s), permeability value
Description: These studies were carried out as previously described with minor modifications.[41],[42] The assessment of the membrane permeability of synthesized compounds and propranolol and metoprolol as reference compounds was performed in a commercially available 96-well Corning Gentest precoated PAMPA plate system (Cultek S.L.U., Spain). Prior to use, the precoated PAMPA plate system was warmed to rt for 30 min and 300 μL of 200 μM solution of tested compound in 2% DMSO in PBS (pH 7.4) were added into wells in the receiver (donor) plate. Then, 200 μL of PBS were added into wells in the filter (acceptor) plate. The filter plate was placed on the receiver plate by slowly lowering the precoated PAMPA plate until it sits on the receiver plate. The assembly was incubated at rt for 5 h, and then buffer samples were collected carefully from each plate. The final concentrations of compound in both donor and acceptor wells were analyzed by HPLC-MS and quantification was estimated by using the peak area integration normalized with an internal standard. Permeability value of the compounds was calculated using the following formula: P (cm/s) = {−ln[1 – CA(t)/Ceq]}/[A(1/VD + 1/VA)t], where A = filter area (0.3 cm^2), VD = donor well volume (0.3 mL), VA = acceptor well volume (0.2 mL), t = incubation time (s), CA(t) = compound concentration (μM) in the acceptor well at time t, CD(t) = compound concentration (μM) in donor well at time t, and Ceq = [CD(t)VD + CA(t)VA]/(VD + VA). Assays were performed in duplicate, and the compound was tested in two different plates on different days.

LPA2 mutant R107A = biological target: T1, LPA2 mutant R107A (Homo sapiens, UniProt Q9HBW0, R104A); assay: Ca2+ mobilization in McA-RH7777 cells transfected with LPA2 point mutant R107A; assay type: cell-based; conditions: 54 at 10 μM, 10 μM LPA
T1 construct: host or cells: McA-RH7777 (CRL-1601, ATCC), transient, pcDNA3.1

LPA4 = LPA4 (Homo sapiens, UniProt Q99677); conditions: in abstract
Description: (§2) The assay was analyzed using a benchtop Compensated Interferometric Reader (CIR) that measured the light refractive index (ΔRI) change from binding-induced conformational and/or hydration changes produced by real time binding events in a sample (receptor containing nanovesicles plus compound) and compared to a nonbinding reference (RI matched buffer plus compound).[30] Finally, the interferometric signal from vector nanovesicles binding (nonspecific) to compound was subtracted from the LPA2,4–6 containing nanovesicles binding (total) to compound, to determine the specific binding interactions of the compounds to LPA2,4–6. The concentration-dependent change in RI (ΔRI) signal from the compounds to LPA2,4–6 or vector was fitted using the single site total vs nonspecific binding isotherm using GraphPad Prism. Specific KD values were determined by fitting the total minus nonspecific signal to a single site binding isotherm.
(§3) The detailed free solution assay method was described previously.[25],[26] All the compounds were dissolved in 100% DMSO, aliquoted, and frozen at −80 °C for 1 week. The compound dilution series was freshly prepared in 0.5% DMSO/PBS (pH 7.4) to keep the maximum compound in solution. […]

LPA5 = LPA5 (Homo sapiens, UniProt Q9H1C0); conditions: in abstract
Description: as §2, §3

[5] = tested on: spinal cord injury in LPA2 null mice; assay: Spinal cord contusion injury model in LPA2 null mice (Basso Mouse Scale); assay type: in vivo; conditions: 25 mg/kg i.p. daily for 10 days
Description: Effect of i.p. injection of 54 (25 mg/kg) or vehicle on locomotor recovery in (A) C57bl/6 mice and (B) LPA2 deficient mice quantified using the 0 (absence of movement) to 9 (completely normal locomotor behavior) Basso Mouse Scale (BMS). Data are expressed as mean ± s.e.m. and correspond to seven animals per group in A and five animals per group in B. * p < 0.05 compared with vehicle-treated group (two-way repeated measures ANOVA with Bonferroni’s post hoc test for multiple comparisons).
All Surgical Procedures Were Approved by the Universitat Autònoma De Barcelona Animal Care Committee (CEEAH 4273) and followed the guidelines of the European Commission on Animal Care (EU Directive 2010/63/EU). Adult female C57Bl/6J mice (10–12 weeks old) and LPA2 null mice were anesthetized by intramuscular injection with a mixture of ketamine and xylazine (90:10 mg/kg). A laminectomy was performed at the 11th thoracic vertebrae and the exposed spinal cord was contused using the Infinite Horizon Impactor device (Precision Scientific Instrumentation) using a force of 60 kdynes. Only mice showing a spinal cord tissue displacement ranging between 450 and 550 μm were selected.

LPA2 mutant Q108A = biological target: T2, LPA2 mutant Q108A (Homo sapiens, UniProt Q9HBW0, Q105A); assay: Ca2+ mobilization in McA-RH7777 cells transfected with LPA2 point mutant Q108A; assay type: cell-based; conditions: 54 at 10 μM, 10 μM LPA
T2 construct: host or cells: McA-RH7777 (CRL-1601, ATCC), transient, pcDNA3.1
T2 sequence (Q9HBW0 whole entry Q105A): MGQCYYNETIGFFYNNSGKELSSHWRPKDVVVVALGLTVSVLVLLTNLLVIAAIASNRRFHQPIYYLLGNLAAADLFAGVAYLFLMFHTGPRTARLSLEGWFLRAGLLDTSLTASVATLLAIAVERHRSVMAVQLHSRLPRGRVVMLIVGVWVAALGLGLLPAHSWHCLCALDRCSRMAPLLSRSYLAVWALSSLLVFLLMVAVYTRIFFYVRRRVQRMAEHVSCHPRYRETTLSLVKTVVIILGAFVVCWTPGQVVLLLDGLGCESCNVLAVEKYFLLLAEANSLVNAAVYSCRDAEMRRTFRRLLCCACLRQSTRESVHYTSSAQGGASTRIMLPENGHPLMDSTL

LPA4, sequence (Q99677 whole entry, species assumed): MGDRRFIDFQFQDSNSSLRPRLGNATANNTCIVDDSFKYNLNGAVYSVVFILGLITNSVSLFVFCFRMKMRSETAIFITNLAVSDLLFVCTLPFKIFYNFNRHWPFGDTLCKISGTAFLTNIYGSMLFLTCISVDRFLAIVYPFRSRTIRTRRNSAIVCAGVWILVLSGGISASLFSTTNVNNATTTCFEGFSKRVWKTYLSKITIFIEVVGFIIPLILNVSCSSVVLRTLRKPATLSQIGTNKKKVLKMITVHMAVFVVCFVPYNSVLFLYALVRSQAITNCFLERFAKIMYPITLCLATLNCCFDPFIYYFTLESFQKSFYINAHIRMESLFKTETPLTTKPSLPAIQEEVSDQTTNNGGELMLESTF
LPA5, sequence (Q9H1C0 whole entry, species assumed): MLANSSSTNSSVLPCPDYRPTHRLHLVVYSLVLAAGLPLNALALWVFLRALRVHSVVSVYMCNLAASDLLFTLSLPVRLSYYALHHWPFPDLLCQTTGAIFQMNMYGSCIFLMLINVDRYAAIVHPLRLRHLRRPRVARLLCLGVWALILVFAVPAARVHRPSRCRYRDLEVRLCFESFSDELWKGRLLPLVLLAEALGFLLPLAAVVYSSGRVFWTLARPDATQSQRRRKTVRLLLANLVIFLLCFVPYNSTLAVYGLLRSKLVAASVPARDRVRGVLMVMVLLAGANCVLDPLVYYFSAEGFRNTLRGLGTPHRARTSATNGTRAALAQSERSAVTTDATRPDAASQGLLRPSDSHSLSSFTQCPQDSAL
T1 sequence (Q9HBW0 whole entry R104A): as the sequence (Q9HBW0 whole entry Q105A) above, with R104A, A105Q counted along it

Cc1[nH]nc(-c2ccc(OCc3nnn[nH]3)cc2O)c1Oc1ccc(Cl)cc1Cl [Compound 54]
half-life at 5 μM [1]: 97 ± 15 min | half-life at 1 μM [2]: 50 ± 6 min | BMS score ([3]; 25 mg/kg i.p. daily for 10 days from 1 h after lesion, day 50 postinjury, scale 0-9): 4.1 ± 0.3 | locomotor recovery after SCI (BMS) ([3]; 25 mg/kg i.p. daily for 10 days, significant from day 35 postinjury onward): significant improvement in locomotor recovery after SCI | Papp at 5 h, 200 μM [4]: 6.1 ×10⁻⁶ cm/s | agonist/antagonist activity at LPA2 R107A mutant (LPA2 mutant R107A): no significant agonist nor antagonist activity | activity at LPA4 receptor (LPA4): inactive | activity at LPA5 receptor (LPA5): inactive | locomotor recovery after SCI (BMS) [5]: did not induce any significant effect; also recorded: inactive | agonist/antagonist activity at LPA2 Q108A mutant (LPA2 mutant Q108A): no significant agonist nor antagonist activity
